What was measured:
Human lymphocytes = assay: Immunosuppressive activity, 3H-thymidine incorporation in concanavalin A activated lymphocytes; format: cell-based; details: 72 hours, [3H]-TdR
Excerpt: One of the most important parameters of specific cellular immunity is the proliferative response of lymphocytes to antigens or polyclonal mitogens. The majority of normal mammalian peripheral lymphocytes comprise resting cells. Antigens or nonspecific polyclonal mitogens have the capacity to activate lymphoid cells and this is accompanied by dramatic changes of intracellular metabolism (mitochondrial activity, protein synthesis, nucleic acids synthesis, formation of blastic cells and cellular proliferation). […] Variety of in vitro assays was developed to measure proliferative response of lymphocytes. The most commonly used is ^3H-thymidine incorporation method.
During cell proliferation, DNA has to be replicated before the cell is divided into two daughter cells. This close association between cell doublings and DNA synthesis is very attractive for assessing cell proliferation. If labelled DNA precursors are added to the cell culture, cells that are about to divide incorporate the labelled nucleotide into their DNA. Traditionally, those assays usually involve the use of radiolabelled nucleosides, particularly tritiated thymidine ([^3H]-TdR). The amount of [^3H]-TdR incorporated into the cellular DNA is quantified by liquid scintillation counting. Human heparinized peripheral blood was obtained from healthy volunteers by cubital vein punction. The blood was diluted in PBS (1:3) and mononuclear cells were separated by centrifugation in Ficoll-Hypaque density gradient (Pharmacia, 1.077 g/ml) at 2200 rpm for 30 minutes. Following centrifugation, lymphocytes were washed in PBS and resuspended in cell culture medium (RMPI 1640, 2 mM glutamine, 100 U/ml penicillin, 100 μg/ml streptomycin, 10% fetal calf serum and sodium bicarbonate).
The cells were diluted at target density of 1.100.000 cells/ml and were added by pipette (180 μl) into 96-well microtiter plates. Four-fold dilutions of the intended test concentration were added at time zero in 20 μl aliquots to the microtiter plate wells. Usually, test compound was evaluated at six 4-fold dilutions. In routine testing, the highest well concentration was 266.7 μM. All drug concentrations were examined in duplicates. All wells with exception of unstimulated controls were activated with 50 of concanavalin A (25 μg/ml). Incubations of cells with test compounds lasted for 72 hours at 37° C., in 5% CO2 atmosphere and 100% humidity. At the end of incubation period, the cells were assayed by using the [^3H]-TdR:
Cell cultures were incubated with 0.5 μCi (20 μl of stock solution 500 μCi/ml per well for 6 hours at 37° C. and 5% CO2. The automated cell harvester was used to lyse cells in water and adsorb the DNA onto glass-fiber filters in the format of microtiter plate. The DNA incorporated [^3H]-TdR was retained on the filter while unincorporated material passes through. The filters were dried at room temperature overnight, sealed into a sample bag with 10-12 ml of scintillant. The amount of [^3H]-TdR present in each filter (in cpm) was determined by scintillation counting in a Betaplate liquid scintillation counter. The effective dose of immunosuppressant (ED) was calculated using the following equation: ED=(CCPMdrug exposed well/mean CCPMcontrol wells)×100%. The ED50 value, the drug concentration inhibiting proliferation of 50% of lymphocytes, was calculated from the obtained dose response curves.

p21^WAF-1 = assay: p21WAF-1 induction in MCF-7 cells (immunoblot); format: cell-based; details: MCF-7, 0-100 μM 12 hours; 1 μM 0.5-24 hours
Description: MCF-7 cells cultured at 37° C. in 5% CO2 atmosphere in DMEM medium supplemented with 10% foetal calf serum were treated with compound 28 concentration ranges of 0-100 μM. Compound 28 was added into the medium from the 100 mM stock solution in DMSO. Cells were harvested 12 hours after incubation with compound 28, centrifuged (1000 rpm, 4° C., 5 min), washed twice by ice-cold PBS and re-centrifuged. These washed cells were then lysed by 1×CSB (loading buffer for SDS-PAGE, i.e. electrophoresis of proteins in polyacrylamide gel containing SDS). Cell lysate proteins were separated by SDS-PAGE and transferred onto a nitrocelulose (NC) membrane. NC membrane was blocked by 5% skimmed milk, 0.1% Tween 20 in PBS. Protein level of p21^WAF-1 and actin (as a loaded protein volume control) were detected immunochemically using commercially available specific monoclonal antibodies anti-p21^WAF-1 (Ab-1, Calbiochem) and anti-Actin (Clone AC-40, Sigma-Aldrich). The primary antibodies bind to target proteins were detected using rabbit secondary peroxidase-labeled antibody (RAM-Px, DAKO), followed by chemiluminiscence (ECL, Amersham-Pharmacia).

COc1cccc(CNc2ncnc3c2ncn3[C@@H]2O[C@H](COP(=O)(O)O)[C@@H](O)[C@H]2O)c1O [Compound 28, 6-(2-hydroxy-3-methoxybenzylamino)purine riboside-5′-monophosphate]
Human lymphocytes ED50 (Human lymphocytes): 1200 nM
p21^WAF-1 protein induction (p21^WAF-1): efficient p21^WAF-1 protein induction
